Assay results taken from EPA's CvTdb concentration-time database.

How the values were obtained:
Assay in all cases: concentration in plasma after dosing
[1] = system: Rat; conditions: 0.5 h; dosed: Dibromoacetic acid; 25 mg/kg; oral; Male; Harlan Sprague Dawley
[2] = system: Rat; conditions: 10 min; dosed: Dibromoacetic acid; 10 mg/kg; iv; Male; F344
[3] = system: Rat; conditions: dosed: Dibromoacetic acid, 25 mg/kg, oral, Male, Harlan Sprague Dawley
[4] = system: Rat; conditions: dosed: Dibromoacetic acid, 25 mg/kg, oral, Female, Harlan Sprague Dawley
[5] = system: Rat; conditions: 5 min; dosed: Dibromoacetic acid; 50 mg/kg; oral; Female; Harlan Sprague Dawley
[6] = system: Rat; conditions: dosed: Dibromoacetic acid, 25 mg/kg, oral, Male, Harlan Sprague Dawley; remark: listed apart in the source
[7] = system: Rat; conditions: dosed: Dibromoacetic acid, 110 mg/kg, iv, Female, Harlan Sprague-Dawley
[8] = system: Rat; conditions: dosed: Dibromoacetic acid, 10 mg/kg, iv, Male, F344
[9] = system: Rat; conditions: 5 min; dosed: Dibromoacetic acid; 25 mg/kg; oral; Male; Harlan Sprague Dawley
[10] = system: Rat; conditions: 5 min; dosed: Dibromoacetic acid; 25 mg/kg; oral; Male; Harlan Sprague Dawley; remark: listed apart in the source
[11] = system: Rat; conditions: 10 min; dosed: Dibromoacetic acid; 10 mg/kg; iv; Male; F344; remark: listed apart in the source
[12] = system: Rat; conditions: dosed: Dibromoacetic acid, 10 mg/kg, iv, Male, F344; remark: listed apart in the source
[13] = system: Rat; conditions: dosed: Dibromoacetic acid, 25 mg/kg, oral, Male, Harlan Sprague Dawley; remark: listed apart in the source
[14] = system: Rat; conditions: dosed: Dibromoacetic acid, 25 mg/kg, oral, Female, Harlan Sprague Dawley; remark: listed apart in the source
[15] = system: Rat; conditions: dosed: Dibromoacetic acid, 25 mg/kg, oral, Male, Harlan Sprague Dawley; remark: listed apart in the source
[16] = system: Rat; conditions: dosed: Dibromoacetic acid, 25 mg/kg, oral, Male, Harlan Sprague Dawley; remark: listed apart in the source
[17] = system: Rat; conditions: dosed: Dibromoacetic acid, 10 mg/kg, iv, Male, F344; remark: listed apart in the source
[18] = system: Rat; conditions: dosed: Dibromoacetic acid, 110 mg/kg, iv, Female, Harlan Sprague-Dawley; remark: listed apart in the source
[19] = system: Rat; conditions: dosed: Dibromoacetic acid, 110 mg/kg, iv, Female, Harlan Sprague-Dawley; remark: listed apart in the source
[20] = system: Rat; conditions: 5 min; dosed: Dibromoacetic acid; 25 mg/kg; oral; Male; Harlan Sprague Dawley; remark: listed apart in the source
[21] = system: Rat; conditions: 40 min; dosed: Dibromoacetic acid; 10 mg/kg; iv; Male; F344
[22] = system: Rat; conditions: dosed: Dibromoacetic acid, 25 mg/kg, oral, Male, Harlan Sprague Dawley; remark: listed apart in the source
[23] = system: Rat; conditions: 0.5 h; dosed: Dibromoacetic acid; 25 mg/kg; oral; Male; Harlan Sprague Dawley; remark: listed apart in the source
[24] = system: Rat; conditions: 0.5 h; dosed: Dibromoacetic acid; 25 mg/kg; oral; Male; Harlan Sprague Dawley; remark: listed apart in the source
[25] = system: Rat; conditions: 0.5 h; dosed: Dibromoacetic acid; 25 mg/kg; oral; Male; Harlan Sprague Dawley; remark: listed apart in the source
[26] = system: Rat; conditions: dosed: Dibromoacetic acid, 25 mg/kg, oral, Male, Harlan Sprague Dawley; remark: listed apart in the source
[27] = system: Rat; conditions: dosed: Dibromoacetic acid
[28] = system: Rat; conditions: dosed: Dibromoacetic acid, 25 mg/kg, oral, Male, Harlan Sprague Dawley; remark: listed apart in the source
[29] = system: Rat; conditions: dosed: Dibromoacetic acid, 50 mg/kg, oral, Female, Harlan Sprague Dawley
[30] = system: Rat; conditions: dosed: Dibromoacetic acid, 25 mg/kg, oral, Male, Harlan Sprague Dawley; remark: listed apart in the source
[31] = system: Rat; conditions: dosed: Dibromoacetic acid, 25 mg/kg, oral, Male, Harlan Sprague Dawley; remark: listed apart in the source
[32] = system: Rat; conditions: 20 min; dosed: Dibromoacetic acid; 10 mg/kg; iv; Male; F344
[33] = system: Rat; conditions: dosed: Dibromoacetic acid, 25 mg/kg, oral, Male, Harlan Sprague Dawley; remark: listed apart in the source
[34] = system: Rat; conditions: 5 min; dosed: Dibromoacetic acid; 25 mg/kg; oral; Male; Harlan Sprague Dawley; remark: listed apart in the source
[35] = system: Rat; conditions: 5 min; dosed: Dibromoacetic acid; 50 mg/kg; oral; Female; Harlan Sprague Dawley; remark: listed apart in the source
[36] = system: Rat; conditions: dosed: Dibromoacetic acid, 10 mg/kg, iv, Male, F344; remark: listed apart in the source
[37] = system: Rat; conditions: dosed: Dibromoacetic acid, 25 mg/kg, oral, Male, Harlan Sprague Dawley; remark: listed apart in the source
[38] = system: Rat; conditions: 20 min; dosed: Dibromoacetic acid; 10 mg/kg; iv; Male; F344; remark: listed apart in the source
[39] = system: Rat; conditions: 40 min; dosed: Dibromoacetic acid; 10 mg/kg; iv; Male; F344; remark: listed apart in the source
[40] = system: Rat; conditions: 5 min; dosed: Dibromoacetic acid; 25 mg/kg; oral; Male; Harlan Sprague Dawley; remark: listed apart in the source
[41] = system: Rat; conditions: dosed: Dibromoacetic acid, 25 mg/kg, oral, Male, Harlan Sprague Dawley; remark: listed apart in the source
[42] = system: Rat; conditions: dosed: Dibromoacetic acid, 25 mg/kg, oral, Male, Harlan Sprague Dawley; remark: listed apart in the source
[43] = system: Rat; conditions: dosed: Dibromoacetic acid, 25 mg/kg, oral, Male, Harlan Sprague Dawley; remark: listed apart in the source
[44] = system: Rat; conditions: dosed: Dibromoacetic acid, 25 mg/kg, oral, Male, Harlan Sprague Dawley; remark: listed apart in the source
[45] = system: Rat; conditions: dosed: Dibromoacetic acid, 25 mg/kg, oral, Male, Harlan Sprague Dawley; remark: listed apart in the source

O=C(O)C(Br)Br [Dibromoacetic acid]
Conditions | concentration in plasma [µg/mL]
[1] | 13.5
[2] | 7.19
[5] | 4.03
[9] | 3.39
[10] | 2.21
[11] | 6.23
[20] | 0.294
[21] | 0.607
[23] | 7.63
[24] | 12.6
[25] | 8.9
[32] | 2.54
[34] | 1.63
[35] | 2.8
[38] | 1.89
[39] | 0.498
[40] | 0.238

Conditions | concentration in plasma [µg/mL]
[3], 1.5 h | 3.34
[3], 20 min | 10.7
[4], 1 h | 8.86
[4], 2 h | 1.24
[6], 1.5 h | 1.55
[6], 20 min | 13.5
[7], 1.5 h | 17.6
[7], 2 h | 5.37
[8], 1 h | 0.208
[8], 2 min | 28.1
[12], 1.25 h | 0.101
[12], 5 min | 14.5
[13], 3 h | 0.646
[13], 10 min | 5.77
[14], 1 h | 8.12
[14], 2 h | 0.887
[15], 3 h | 1.62
[15], 10 min | 1.88
[16], 0.75 h | 10.3
[16], 4 h | 0.771
[17], 1 h | 0.186
[17], 2 min | 28.8
[18], 1.5 h | 20.9
[18], 3 h | 0.472
[19], 2 h | 4.66
[19], 3 h | 0.459
[22], 0.75 h | 6.41
[22], 4 h | 0.772
[26], 1.5 h | 1.46
[26], 20 min | 13.2
[28], 1.5 h | 2.03
[28], 20 min | 20.9
[29], 3 h | 2.05
[29], 10 min | 9.97
[30], 3 h | 1.72
[30], 10 min | 0.853
[31], 0.75 h | 8.79
[31], 4 h | 0.592
[33], 0.5 h | 15
[33], 6 h | 0.466
[36], 1.25 h | 0.301
[36], 5 min | 12
[37], 1.5 h | 1.56
[37], 20 min | 24.2
[41], 1 h | 8.05
[41], 2 h | 1.28
[42], 3 h | 0.129
[42], 10 min | 12.1
[43], 3 h | 0.476
[43], 10 min | 6.89
[44], 0.75 h | 10.2
[44], 4 h | 1.54
[45], 1 h | 8.77
[45], 2 h | 1.77

concentration in plasma [µg/mL], [27]
Conditions | Female | Male
0.5 h, 25 mg/kg, oral, Harlan Sprague Dawley | – | 10.8
0.75 h, 25 mg/kg, oral, Harlan Sprague Dawley | 8.91 | 11.5
1 h, 10 mg/kg, iv, F344 | – | 0.262
1 h, 25 mg/kg, oral, Harlan Sprague Dawley | 6.86 | 8.31
1.25 h, 10 mg/kg, iv, F344 | – | 0.0971
1.5 h, 10 mg/kg, iv, F344 | – | 0.175
1.5 h, 25 mg/kg, oral, Harlan Sprague Dawley | – | 2
1.5 h, 110 mg/kg, iv, Harlan Sprague-Dawley | 21.6 | –
2 h, 25 mg/kg, oral, Harlan Sprague Dawley | 1.46 | 1.85
2 h, 110 mg/kg, iv, Harlan Sprague-Dawley | 4.71 | –
2 min, 10 mg/kg, iv, F344 | – | 31.1
3 h, 25 mg/kg, oral, Harlan Sprague Dawley | – | 0.751
3 h, 50 mg/kg, oral, Harlan Sprague Dawley | 1.93 | –
3 h, 110 mg/kg, iv, Harlan Sprague-Dawley | 0.405 | –
4 h, 25 mg/kg, oral, Harlan Sprague Dawley | 0.967 | 0.106
5 min, 10 mg/kg, iv, F344 | – | 11.5
5 min, 25 mg/kg, oral, Harlan Sprague Dawley | – | 0.411
5 min, 50 mg/kg, oral, Harlan Sprague Dawley | 8.05 | –
6 h, 25 mg/kg, oral, Harlan Sprague Dawley | – | 0.109
10 min, 10 mg/kg, iv, F344 | – | 5.23
10 min, 25 mg/kg, oral, Harlan Sprague Dawley | – | 4.01
10 min, 50 mg/kg, oral, Harlan Sprague Dawley | 13.5 | –
20 min, 10 mg/kg, iv, F344 | – | 2.81
20 min, 25 mg/kg, oral, Harlan Sprague Dawley | – | 17.2
40 min, 10 mg/kg, iv, F344 | – | 0.544
